Test results from US6476049B2, “Therapeutic agent for intermittent claudication” (Ajinomoto Co., Inc., priority 1999, dated 2002).
Structures can show the parent of a compound that is named as a salt.

How the values were obtained:
[1] = system: Rabbit Intermittent Claudication Model (injured limb of the high cholesterol chow-loaded rabbit); assay: Rabbit intermittent claudication model: recovery time of tissue oxygen saturation after exercise (near infrared spectrophotometer); type: in vivo, male New Zealand White Rabbits; conditions: for Recovery Time of Tissue Oxygen Saturation: 3 days after operation, injured limb, high cholesterol chow-loaded rabbit; for Effect on the recovery time of the tissue oxygen saturation (in words): vs control, drug of the invention 3 mg/kg, pentoxifylline 300 mg/kg, cilostazol 100 mg/kg, sarpogrelate hydrochloride 300 mg/kg
From the text: To male New Zealand White Rabbits, there was given 1% cholesterol-containing RC4 (available from ORIENTAL KOBO Co., Ltd.) chow over 4 weeks (100 g/day/animal) to obtain a high cholesterol-loaded group (8 animals), while normal RC4 (available from ORIENTAL KOBO Co., Ltd.) chow was given to a group of such animals (normal feed-loaded group: 6 animals). The groins of these animals belonging to these two groups were incised in their supine position, under the anesthesia with ketamine and xylazine, followed by exposing the right femoral artery and then repeating, three times, the balloon injury treatment, which comprises the steps of inserting a Fogarty's balloon catheter in a length of 7 cm into the artery, expanding the balloon catheter to a diameter of 5 mm within the right iliac artery and then pulling out the catheter while the balloon catheter was still in the expanded state and finally ligating the right femoral artery. After 3 days from the operation, the both gluteal regions and the posterior of the lower limbs were dissected in the supine position of the animal under the anesthesia with ketamine and xylazine. The probe of a near infrared spectrophotometer was directly fitted to the interior of the both side gastrocnemius muscles, followed by application of electrical stimulation at 1 Hz to the sciatic nerves on both sides for 2 minutes as exercise loads.
After the application of exercise, these animals were kept quiet rest, followed by monitoring the process in which the degree of tissue oxygen saturation reduced during exercise was recovered, using an multi-wavelength-type near infrared spectrophotometer to thus obtain the time required for the recovery of the degree of tissue oxygen saturation in the both limbs. As such multi-wavelength-type near infrared spectrophotometer, there was used MCPD-2000 available from OTSUKA ELECTRONICS Co., Ltd., which had been improved in such a manner that the device could almost simultaneously detect the tissue oxygen saturation for the both side gastrocnemius muscles. In this respect, the distance between the light guide and detector of near infrared light rays was set at a level of 5 mm. A ½ recovered tissue oxygen saturation (½ StO2), which was an intermediate value of the tissue oxygen saturation observed after the application of the exercise (the minimum tissue oxygen saturation after exercise) and the tissue oxygen saturation observed after the recovery of exercise (the maximum tissue oxygen saturation after exercise) and then the recovery time was defined to be the time required for arriving at the level of ½ StO2 after the end of exercise-application.
To male New Zealand White Rabbits, there was given 1% cholesterol-containing RC4 (available from ORIENTAL KOBO Co., Ltd.) chow over 4 weeks (100 g/day/animal), followed by dividing these animals into two groups in such a manner that the total cholesterol levels in the plasma were identical to one another and then subjecting these two groups to treatments identical to those used in the foregoing model.
To these animals, there was orally administered, once a day, 1-formyl-N-(2-(4-(5H-dibenzo [a, d] cyclohepten-5-ylidene)-1-piperidinyl)) ethyl isonipecotic acid amide represented by the formula (2) after dissolving it in water in an amount of 3 mg/kg over the term extending from the day following the operation to the day on which the near infrared spectrophotometric measurement was initiated. On the other hand, distilled water was orally administered to the control group once a day. After 3 days from the operation, the recovery time of the tissue oxygen saturation after exercise was determined using a near infrared spectrophotometer.
The same procedures used in Example 1 were repeated except for using 300 mg/kg of pentoxifylline in place of the compound represented by the formula (2) to thus carry out the determination. […]

[2] = system: Rat Intermittent Claudication Model; assay: Rat intermittent claudication model (lauric acid injection): maximum running/walking time on treadmill; type: in vivo, male SD rats; conditions: for Maximum Walking Time, recovery rate relative to day 1 (defined to be 100), After 1 day: after 1 day from lauric acid injection (baseline = 100); for Maximum Walking Time, recovery rate relative to day 1 (defined to be 100), After 1 day / Maximum Walking Time, recovery rate relative to day 1 (= 100), After 3 days / Maximum Walking Time, recovery rate relative to day 1 (= 100), After 7 days / Maximum Walking Time, recovery rate relative to day 1 (= 100), After 14 days / Maximum Walking Time, recovery rate relative to day 1 (= 100), After 21 days: formula (2) hydrochloride 3 mg/kg/day, pentoxifylline 60 mg/kg/day, oral; for Maximum Walking Time, recovery rate relative to day 1 (= 100), After 3 days: after 3 days from lauric acid injection, control 132; for Maximum Walking Time, recovery rate relative to day 1 (= 100), After 7 days: after 7 days from lauric acid injection, control 177; for Maximum Walking Time, recovery rate relative to day 1 (= 100), After 14 days: after 14 days from lauric acid injection, control 198; for Maximum Walking Time, recovery rate relative to day 1 (= 100), After 21 days: after 21 days from lauric acid injection, control 215
Description: (§1) Using an improved model of Corcico et al. (Corcico N. Cardiovasc. Drugs Ther., 1993, 7:241-251), male SD rats were made run on a rat treadmill (available from NATSUME SEISAKUSHO) at a speed of 10 m/min, followed by stepwise raising the running speed by 5 m/min every 3 minutes to thus determine the time (the maximum running time) required till the rats could not run any more and to thus evaluate the running ability of each animal. On the following day, these rats were anesthetized with pentobarbital and then 3.5 mg/ml of sodium laurate solution (available from SIGMA Company; dissolved in a 0.5% glucose aqueous solution) was injected into the right and left femoral arteries at a dose of 100 μl/leg to thus induce artificial intermittent claudication in the animals.
After 1, 3, 7, 14 and 21 days from the injection of the sodium laurate solution, the maximum running time was determined according to the method described above.
(§2) The same procedures used in Reference Example 2 were repeated using male SD rats (15 animals) to thus establish a rat intermittent claudication model. On the day following the lauric acid-injection, each animal was inspected for the maximum running time and these animals were divided into three groups so that the running abilities of these groups were almost identical to one another. To the first group (drug-administered group), there was orally administered, once a day, 3 mg/kg of hydrochloride of the compound represented by the formula (2) dissolved in distilled water over the term extending from the day following the lauric acid injection to 21st day, while 60 mg/kg of pentoxifylline (available from SIGMA Company) dissolved in distilled water was orally administered to the second group once a day as a comparative example. To the third group (control group), there was orally administered distilled water once a day. After 3, 7, 14 and 21 days from the lauric acid-injection, the maximum running time of each animal was determined to thus evaluate the recovery rate relative to the maximum walking time observed after the day following the lauric acid-injection (this was defined to be 100). In addition, the presence of any lesion on the limbs was simultaneously confirmed. The presence of any lesion on the lower limb was rated according to the following 6 evaluation criteria: 0: normal and all of the 5 toes could widely be opened; 1: limbs could look upward, but the toes could not be opened; 2: the limbs looked downward; 3: not less than 3 claws were necrosed; 4: not less than 3 toes were necrosed; and 5: not less than 3 toes were left out.

[3] = system: Rat Intermittent Claudication Model; assay: Rat intermittent claudication model (lauric acid injection): score for lower limb lesion; type: in vivo, male SD rats; conditions: for Score for Lower Limb Lesion, After 1 day / Score for Lower Limb Lesion, After 3 days / Score for Lower Limb Lesion, After 7 days / Score for Lower Limb Lesion, After 14 days / Score for Lower Limb Lesion, After 21 days: score 0-5, formula (2) hydrochloride 3 mg/kg/day, pentoxifylline 60 mg/kg/day, oral; for Score for Lower Limb Lesion, After 1 day: after 1 day from lauric acid injection (baseline), control 4.0; for Score for Lower Limb Lesion, After 3 days / Score for Lower Limb Lesion, After 7 days / Score for Lower Limb Lesion, After 14 days: control 3.8; for Score for Lower Limb Lesion, After 21 days: control 3.4
Description: as §1, §2

Row | SMILES | Recovery Time of Tissue Oxygen Saturation ([1]; 100 mg/kg orally once a day, control 2.8 ± 0.97) [min] | Effect on the recovery time of the tissue oxygen saturation (in words) [1] | Recovery Time of Tissue Oxygen Saturation ([1]; 3 mg/kg orally once a day, control 3.8 ± 0.46) [min] | Maximum Walking Time, recovery rate relative to day 1 (defined to be 100), After 1 day [2] | Maximum Walking Time, recovery rate relative to day 1 (= 100), After 3 days [2] | Maximum Walking Time, recovery rate relative to day 1 (= 100), After 7 days [2] | Maximum Walking Time, recovery rate relative to day 1 (= 100), After 14 days [2] | Maximum Walking Time, recovery rate relative to day 1 (= 100), After 21 days [2] | Score for Lower Limb Lesion, After 1 day [3] | Score for Lower Limb Lesion, After 3 days [3] | Score for Lower Limb Lesion, After 7 days [3] | Score for Lower Limb Lesion, After 14 days [3] | Score for Lower Limb Lesion, After 21 days [3] | Recovery Time of Tissue Oxygen Saturation ([1]; 300 mg/kg orally once a day, control 3.8 ± 1.28) [min] | Effect on the maximum walking time (in words) ([2]; vs control group, formula (2) hydrochloride 3 mg/kg (after 7 days), pentoxifylline 60 mg/kg) | Effect on the development of lesions of the lower limbs (in words) ([3]; vs control group, formula (2) hydrochloride 3 mg/kg, pentoxifylline 60 mg/kg) | Recovery Time of Tissue Oxygen Saturation ([1]; 300 mg/kg (table) orally once a day, control 3.9 ± 1.08) [min]
1 | O=C1CCc2cc(OCCCCc3nnnn3C3CCCCC3)ccc2N1 [Cilostazol, cilostazol] | 3.5 ± 0.52 | does not show any substantial reduction of the recovery time | – | – | – | – | – | – | – | – | – | – | – | – | – | – | –
2 | O=CN1CCC(C(=O)NCCN2CCC(=C3c4ccccc4C=Cc4ccccc43)CC2)CC1 [Compound of Formula (2), 1-formyl-N-(2-(4-(5H-dibenzo[a,d]cyclohepten-5-ylidene)-1-piperidinyl))-ethyl-isonipecotic acid amide] | – | – | 2.0 ± 0.40 | 100 | 189 | 256 | 252 | 317 | 4.0 | 3.2 | 2.2 | 1.7 | 1.5 | – | – | – | –
3 | CC(=O)CCCCn1c(=O)c2c(ncn2C)n(C)c1=O [Pentoxifylline, pentoxifylline] | – | did not show any reduction in the recovery time | – | 100 | 178 | 189 | 211 | 249 | 4.0 | 3.7 | 3.7 | 3.3 | 2.5 | 7.1 ± 1.65 | had a tendency of increasing the maximum walking time | the effect was still insufficient | –
4 | COc1cccc(CCc2ccccc2OCC(CN(C)C)OC(=O)CCC(=O)O)c1 (centres unmarked) [Sarpogrelate · HCl, sarpogrelate hydrochloride] | – | did not show any reduction of the recovery time | – | – | – | – | – | – | – | – | – | – | – | – | – | – | 3.4 ± 1.33
